Test results from patent publication US20240131044A1, “METHOD FOR TREATING CANCER” (M.T.3, Inc., priority 2022, published 2024).

Legend:
[1] = test system: Melanoma developing cells (CML6M); assay: Colony formation, survival fraction of canine melanoma cells; format: cell-based
Procedure: (§1) An anti-cancer agent and a pharmaceutical composition were administered to test cells and then the cells were cultured. Then, after colonies were formed, the number of colonies was counted. Here, samples in which the concentration of the anti-cancer agent to be administered was varied were prepared, and in each sample, the survival fraction of the cells compared with the case where cells were cultured without administration of the pharmaceutical composition was measured. Regarding the type of anti-cancer agent to be administered, a predetermined anti-cancer agent was selected depending on the type of administration target cells. Note that cells that were cultured without administration of the pharmaceutical composition and the anti-cancer agent were used as a control. Hereinafter, these steps will be described.
(§2) Here, CHO cells, V79 cells, and canine-derived cancer cells were prepared as the test cells. The CHO cells are ovarian cells derived from Chinese hamsters, and the V79 cells are fibroblasts derived from the lungs of Chinese hamsters. Melanoma developing cells (CML6M) and soft tissue sarcoma developing cells (STSA-1) were used as the cancer cells.
(§3) The cancer cells were prepared by being cultured using an αMEM culture medium supplemented with 10% serum and an antibiotic. The cancer cells were prepared such that, when the concentration of the cells in a cell suspension obtained by subjecting the cultured cells to PBS washing and trypsin treatment, the concentration was within a predetermined concentration range. Here, the predetermined concentration ranges were 300 cells/well, 100 to 150 cells/well, and 500 to 1000 cells/well for the CHO/V79 cells, the melanoma cells, and the soft tissue sarcoma cells, respectively.
(§4) Next, the cancer cells were cultured in culture environments to which the anti-cancer agent was added at various concentrations, and were then allowed to form colonies. The culture periods for colony formation were a week, 10 days, and 14 days for CHO and V79, melanoma, and soft tissue sarcoma, respectively. After colonies were formed, washing using a physiological saline solution, fixation using 100% ethanol, and staining using 0.1% crystal violet were performed, and then the number of colonies per well was counted under a microscope. Note that, here, the colony was defined as containing 50 or more cells. Moreover, mitomycin C, doxorubicin, bleomycin, camptothecin, etoposide, taxol, methyl methanesulfonate, and cisplatin were used as the anti-cancer agent.
(§5) A graph with the horizontal axis representing the concentration of the anti-cancer agent and the vertical axis representing the survival fraction was created by plotting the survival fraction measurement results relative to the SQAP administration amounts, and the effect of the addition of SQAP on the survival fraction was examined. Hereinafter, the results from each anti-cancer agent will be shown in a table and described.
Canine-derived melanoma cells and soft tissue sarcoma cells were used as the cells, and doxorubicin was used as the anti-cancer agent. […] Also, the concentration of the doxorubicin administered to the soft tissue sarcoma cells was set to 0 nM, 5 nM, 10 nM, and 15 nM. […] In Table 2, survival fractions in the case where SQAP was not administered are shown with a solid line, survival fractions in the case where SQAP was administered at a concentration of 10 μM are shown with a broken line, survival fractions in the case where SQAP was administered at a concentration of 20 μM are shown with a 1-dot chain line, and survival fractions in the case where SQAP was administered at a concentration of 30 μM are shown with a 2-dot chain line.
(§6) In the above examples, the anti-cancer agent and the pharmaceutical composition were administered to the test cells and then the cells were cultured. […]

CHO cells = assay: Colony formation, survival fraction of CHO cells; format: cell-based, Chinese hamsters
Procedure: as §1, §2, §3
as §4, with “Moreover, mitomycin C, doxorubicin, bleomycin, camptothecin, etoposide, taxol, methyl methanesulfonate, and cisplatin were used as the anti-cancer agent.” left out
In the above examples, the anti-cancer agent and the pharmaceutical composition were administered to the test cells and then the cells were cultured. In this example, test cells were cultured after administering pharmaceutical composition (SQAP) alone without administering the anti-cancer agent to the test cells, and then the number of colonies was counted after colonies were formed. […]

V79 cells = assay: Colony formation, survival fraction of V79 cells; format: cell-based, Chinese hamsters
Procedure: as §1, §2, §3
as §4, with “Moreover, mitomycin C, doxorubicin, bleomycin, camptothecin, etoposide, taxol, methyl methanesulfonate, and cisplatin were used as the anti-cancer agent.” left out
as §5, with “described. […]” for “described.”
V79 cells were used as the cells, and cisplatin was used as the anti-cancer agent. The cisplatin was administered at concentrations of 0 μg/mL, 0.1 μg/mL, 0.2 μg/mL, 0.3 μg/mL, 0.4 μg/mL, and 0.5 μg/mL.
V79 cells were used as the cells, and camptothecin was used as the anti-cancer agent. The amount of the camptothecin was set to 0 nM, 5 nM, 10 nM, 15 nM, and 20 nM.
V79 cells were used as the cells, and mitomycin C was used as the anti-cancer agent. The amount of MMC was set to 0 nM, 100 nM, 200 nM, 300 nM, 400 nM, and 500 nM. […]
V79 cells were used as the cells, and taxol was used as the anti-cancer agent. The amount of the taxol was set to 0 nM, 10 nM, 20 nM, and 30 nM.
V79 cells were used as the cells, and MMS was used as the anti-cancer agent. The amount of the MMS was set to 0 μM, 10 μM, 20 μM, 30 μM, and 40 μM.
as §6

Question: What does the source list for CCCCCCCCCCCCCCCCCC(=O)OCCCO[C@H]1O[C@H](CS(=O)(=O)O)[C@@H](O)[C@H](O)[C@H]1O [SQAP, sulfoquinovosylacylpropanediol]?
Answer: survival fraction ([1]; melanoma cells, doxorubicin 15 nM + SQAP 10 μM): about 10%; survival fraction ([1]; melanoma cells, doxorubicin 15 nM + SQAP 20 μM): about 3%; survival fraction ([1]; melanoma cells, doxorubicin 15 nM + SQAP 30 μM): about 0.4%; survival fraction ([1]; melanoma developing cells, SQAP 10 μM alone): about 90%; survival fraction ([1]; melanoma developing cells, SQAP 20 μM alone): about 85%; survival fraction ([1]; melanoma developing cells, SQAP 30 μM alone): about 60%; survival fraction ([1]; melanoma developing cells, doxorubicin 10 μM + SQAP 10 μM (as restated in Example 10)): about 10%; survival fraction ([1]; melanoma developing cells, doxorubicin 10 μM + SQAP 20 μM (as restated in Example 10)): about 3%; survival fraction ([1]; melanoma developing cells, doxorubicin 10 μM + SQAP 30 μM (as restated in Example 10)): about 0.4%; survival fraction (CHO cells; SQAP 30 μM alone): about 75%; survival fraction (CHO cells; mitomycin C 500 nM + SQAP 30 μM): about 1%; survival fraction (CHO cells; mitomycin C 500 μM + SQAP 30 μM (as restated in Example 10)): about 1%; survival fraction (V79 cells; MMS 40 μM + SQAP 10 μM): about 7%; survival fraction (V79 cells; MMS 40 μM + SQAP 20 μM): less than 1%; survival fraction (V79 cells; SQAP 10 μM alone): 10%; survival fraction (V79 cells; SQAP 20 μM alone): 10%; survival fraction of cells after culture, SQAP and anti-cancer agent in combination compared with SQAP alone (V79 cells; any anti-cancer agent of the examples): decreased; survival fraction (V79 cells; bleomycin 15 nM + SQAP 10 μM): about 20%; survival fraction (V79 cells; bleomycin 15 nM + SQAP 20 μM): about 2%; survival fraction (V79 cells; camptothecin 20 nM + SQAP 10 μM): about 12%; survival fraction (V79 cells; camptothecin 20 nM + SQAP 20 μM): about 3%; survival fraction (V79 cells; cisplatin 0.3 μg/mL + SQAP 10 μM (b65 prints 1011M)): about 8%; survival fraction (V79 cells; cisplatin 0.3 μg/mL + SQAP 20 μM (b65 prints 20 without unit)): about 5%; survival fraction (V79 cells; etoposide 30 nM + SQAP 10 μM): about 9%; survival fraction (V79 cells; etoposide 30 nM + SQAP 20 μM): about 8%; survival fraction (V79 cells; mitomycin C 500 nM + SQAP 10 μM): about 2%; survival fraction (V79 cells; mitomycin C 500 nM + SQAP 20 μM): about 1.8%; survival fraction (V79 cells; taxol 30 nM + SQAP 10 μM): about 2%; survival fraction (V79 cells; taxol 30 nM + SQAP 20 μM): about 2%
